Results: ChEMBL document CHEMBL1201862, “PubChem BioAssay data set” (2004)
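Compound exposure: 48 hours, 5 concentrations, 96-well plates. The concentration for 50% growth inhibition is given as GI50.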 Activity calls are given as the source filed them. Rule as the data show it: active = GI50 up to about 1.1 µM and inactive = higher.

What was measured:
Assay in all cases: NCI-60 cell line screen, 48 h
OVCAR-4 = tested on: OVCAR-4
CAKI-1 = tested on: CAKI-1
SF-295 = tested on: SF-295
K562 = tested on: K562
HCT-15 = tested on: HCT-15
NCI/ADR-RES = tested on: NCI/ADR-RES
OVCAR-3 = tested on: OVCAR-3
IGROV-1 = tested on: IGROV-1
BT-549 = tested on: BT-549
COLO 205 = tested on: COLO 205
HT-29 = tested on: HT-29
HL-60 = tested on: HL-60
HCT-116 = tested on: HCT-116
Hs-578T = tested on: Hs-578T
SK-OV-3 = tested on: SK-OV-3
UACC-62 = tested on: UACC-62
NCI-H23 = tested on: NCI-H23
SK-MEL-2 = tested on: SK-MEL-2
SN12C = tested on: SN12C
NCI-H460 = tested on: NCI-H460
SNB-75 = tested on: SNB-75
SF-539 = tested on: SF-539
LOX IMVI = tested on: LOX IMVI
T47D = tested on: T47D
KM12 = tested on: KM12
RXF 393 = tested on: RXF 393
MDA-N = tested on: MDA-N
A549 = tested on: A549
RPMI-8226 = tested on: RPMI-8226
MDA-MB-231 = tested on: MDA-MB-231
M14 = tested on: M14
OVCAR-8 = tested on: OVCAR-8
MOLT-4 = tested on: MOLT-4
ACHN = tested on: ACHN
EKVX = tested on: EKVX
SK-MEL-28 = tested on: SK-MEL-28
TK-10 = tested on: TK-10
UO-31 = tested on: UO-31
PC-3 = tested on: PC-3
CCRF-CEM = tested on: CCRF-CEM
SR = tested on: SR
NCI-H522 = tested on: NCI-H522
SW-620 = tested on: SW-620
U-251 = tested on: U-251
MDA-MB-435 = tested on: MDA-MB-435
SNB-19 = tested on: SNB-19
HOP-62 = tested on: HOP-62
786-0 = tested on: 786-0
MCF7 = tested on: MCF7
SK-MEL-5 = tested on: SK-MEL-5
SF-268 = tested on: SF-268
DU-145 = tested on: DU-145
UACC-257 = tested on: UACC-257
HOP-92 = tested on: HOP-92
OVCAR-5 = tested on: OVCAR-5
NCI-H226 = tested on: NCI-H226
Malme-3M = tested on: Malme-3M
HCC 2998 = tested on: HCC 2998

In the case of `C(=C\Nc1ccc(-c2ccccc2)cc1)/C=N/c1ccc(-c2ccccc2)cc1`, the GI50 (OVCAR-4) is reported as > 100 µM (inactive), the GI50 (CAKI-1) is reported as > 100 µM (inactive) and the GI50 (SF-295) is reported as > 100 µM (inactive). The GI50 (K562) was > 100 µM (inactive), the GI50 (HCT-15) was over 100 µM and the GI50 (NCI/ADR-RES) was > 100 µM (inactive). The GI50 (OVCAR-3) was > 100 µM (inactive), the GI50 (IGROV-1) was > 100 µM (inactive) and the GI50 (BT-549) was > 100 µM (inactive). The GI50 (COLO 205) was > 100 µM (inactive), the GI50 (HT-29) was > 100 µM (inactive) and the GI50 (HL-60) was > 100 µM (inactive). For the same compound, the GI50 (HCT-116) was > 100 µM (inactive), the GI50 (Hs-578T) was > 100 µM (inactive) and the GI50 (SK-OV-3) was > 100 µM (inactive). The GI50 (UACC-62) was > 100 µM (inactive), the GI50 (NCI-H23) was > 100 µM (inactive) and the GI50 (SK-MEL-2) was > 100 µM (inactive). The GI50 (SN12C) was > 100 µM (inactive), the GI50 (NCI-H460) was > 100 µM (inactive) and the GI50 (SNB-75) was > 100 µM (inactive). For the same compound, the GI50 (SF-539) was > 100 µM (inactive), the GI50 (LOX IMVI) was > 100 µM (inactive) and the GI50 (T47D) was > 100 µM (inactive). The GI50 (KM12) was > 100 µM (inactive), the GI50 (RXF 393) was > 100 µM (inactive) and the GI50 (MDA-N) was > 100 µM (inactive). The GI50 (A549) was > 100 µM (inactive), the GI50 (RPMI-8226) was > 100 µM (inactive) and the GI50 (MDA-MB-231) was 79.8 µM (inactive). For the same compound, the GI50 (M14) was > 100 µM (inactive), the GI50 (OVCAR-8) was > 100 µM (inactive) and the GI50 (MOLT-4) was > 100 µM (inactive). For the same compound, the GI50 (ACHN) was > 100 µM (inactive), the GI50 (EKVX) was > 100 µM (inactive) and the GI50 (SK-MEL-28) was > 100 µM (inactive). For the same compound, the GI50 (TK-10) was 54.3 µM (inactive), the GI50 (UO-31) was > 100 µM (inactive) and the GI50 (PC-3) was > 100 µM (inactive). For the same compound, the GI50 (CCRF-CEM) was > 100 µM (inactive), the GI50 (SR) was > 100 µM (inactive) and the GI50 (NCI-H522) was > 100 µM (inactive). The GI50 (SW-620) was > 100 µM (inactive), the GI50 (U-251) was > 100 µM (inactive) and the GI50 (MDA-MB-435) was > 100 µM (inactive). The GI50 (SNB-19) was > 100 µM (inactive), the GI50 (HOP-62) was > 100 µM (inactive) and the GI50 (786-0) was > 100 µM (inactive). For the same compound, the GI50 (MCF7) was > 100 µM (inactive), the GI50 (SK-MEL-5) was > 100 µM (inactive) and the GI50 (SF-268) was > 100 µM (inactive). For the same compound, the GI50 (DU-145) was > 100 µM (inactive), the GI50 (UACC-257) was > 100 µM (inactive) and the GI50 (HOP-92) was > 100 µM (inactive). The GI50 (OVCAR-5) was > 100 µM (inactive) and the GI50 (NCI-H226) was > 100 µM (inactive).

For `Cc1nn(C(=O)c2ccc(Cl)cc2)c2c1C(c1ccc(O)cc1)SC(=N)N2` (stereo not drawn), the GI50 (OVCAR-4) was > 10 µM (inactive), the GI50 (CAKI-1) was > 10 µM (inactive) and the GI50 (SF-295) was > 10 µM (inactive). The GI50 (K562) was > 10 µM (inactive), the GI50 (HCT-15) was over 10 µM and the GI50 (NCI/ADR-RES) was > 10 µM (inactive). The GI50 (OVCAR-3) was > 10 µM (inactive), the GI50 (IGROV-1) was > 10 µM (inactive) and the GI50 (Malme-3M) was > 10 µM (inactive). The GI50 (BT-549) was > 10 µM (inactive), the GI50 (COLO 205) was > 10 µM (inactive) and the GI50 (HT-29) was > 10 µM (inactive). For the same compound, the GI50 (HL-60) was > 10 µM (inactive), the GI50 (HCT-116) was > 10 µM (inactive) and the GI50 (Hs-578T) was > 10 µM (inactive). The GI50 (SK-OV-3) was > 10 µM (inactive), the GI50 (UACC-62) was > 10 µM (inactive) and the GI50 (NCI-H23) was > 10 µM (inactive). For the same compound, the GI50 (SK-MEL-2) was > 10 µM (inactive), the GI50 (SN12C) was > 10 µM (inactive) and the GI50 (NCI-H460) was > 10 µM (inactive). The GI50 (SNB-75) was > 10 µM (inactive), the GI50 (SF-539) was > 10 µM (inactive) and the GI50 (LOX IMVI) was > 10 µM (inactive). For the same compound, the GI50 (T47D) was > 10 µM (inactive), the GI50 (KM12) was > 10 µM (inactive) and the GI50 (RXF 393) was > 10 µM (inactive). The GI50 (MDA-N) was > 10 µM (inactive), the GI50 (A549) was > 10 µM (inactive) and the GI50 (RPMI-8226) was > 10 µM (inactive). The GI50 (HCC 2998) was > 10 µM (inactive), the GI50 (MDA-MB-231) was > 10 µM (inactive) and the GI50 (M14) was > 10 µM (inactive). For the same compound, the GI50 (OVCAR-8) was > 10 µM (inactive), the GI50 (MOLT-4) was > 10 µM (inactive) and the GI50 (ACHN) was > 10 µM (inactive). For the same compound, the GI50 (EKVX) was > 10 µM (inactive), the GI50 (SK-MEL-28) was > 10 µM (inactive) and the GI50 (TK-10) was > 10 µM (inactive). For the same compound, the GI50 (PC-3) was > 10 µM (inactive), the GI50 (CCRF-CEM) was > 10 µM (inactive) and the GI50 (SR) was > 10 µM (inactive). The GI50 (NCI-H522) was > 10 µM (inactive), the GI50 (SW-620) was > 10 µM (inactive) and the GI50 (U-251) was > 10 µM (inactive). The GI50 (MDA-MB-435) was > 10 µM (inactive), the GI50 (SNB-19) was > 10 µM (inactive) and the GI50 (HOP-62) was > 10 µM (inactive). The GI50 (786-0) was > 10 µM (inactive), the GI50 (MCF7) was > 10 µM (inactive) and the GI50 (SK-MEL-5) was > 10 µM (inactive). The GI50 (SF-268) was > 10 µM (inactive), the GI50 (DU-145) was > 10 µM (inactive) and the GI50 (UACC-257) was > 10 µM (inactive). For the same compound, the GI50 (HOP-92) was > 10 µM (inactive), the GI50 (OVCAR-5) was > 10 µM (inactive) and the GI50 (NCI-H226) was > 10 µM (inactive).
